Data reported in patent US7410975B2, “Small molecule toll-like receptor (TLR) antagonists” (Coley Pharmaceutical Group, Inc., priority 2003, dated 2008).

Biological target: T1, human TLR9 (hTLR9) (Homo sapiens, UniProt Q9NR96)
T1 construct: expressed in transfected cells
T1 sequence (Q9NR96 26-1032): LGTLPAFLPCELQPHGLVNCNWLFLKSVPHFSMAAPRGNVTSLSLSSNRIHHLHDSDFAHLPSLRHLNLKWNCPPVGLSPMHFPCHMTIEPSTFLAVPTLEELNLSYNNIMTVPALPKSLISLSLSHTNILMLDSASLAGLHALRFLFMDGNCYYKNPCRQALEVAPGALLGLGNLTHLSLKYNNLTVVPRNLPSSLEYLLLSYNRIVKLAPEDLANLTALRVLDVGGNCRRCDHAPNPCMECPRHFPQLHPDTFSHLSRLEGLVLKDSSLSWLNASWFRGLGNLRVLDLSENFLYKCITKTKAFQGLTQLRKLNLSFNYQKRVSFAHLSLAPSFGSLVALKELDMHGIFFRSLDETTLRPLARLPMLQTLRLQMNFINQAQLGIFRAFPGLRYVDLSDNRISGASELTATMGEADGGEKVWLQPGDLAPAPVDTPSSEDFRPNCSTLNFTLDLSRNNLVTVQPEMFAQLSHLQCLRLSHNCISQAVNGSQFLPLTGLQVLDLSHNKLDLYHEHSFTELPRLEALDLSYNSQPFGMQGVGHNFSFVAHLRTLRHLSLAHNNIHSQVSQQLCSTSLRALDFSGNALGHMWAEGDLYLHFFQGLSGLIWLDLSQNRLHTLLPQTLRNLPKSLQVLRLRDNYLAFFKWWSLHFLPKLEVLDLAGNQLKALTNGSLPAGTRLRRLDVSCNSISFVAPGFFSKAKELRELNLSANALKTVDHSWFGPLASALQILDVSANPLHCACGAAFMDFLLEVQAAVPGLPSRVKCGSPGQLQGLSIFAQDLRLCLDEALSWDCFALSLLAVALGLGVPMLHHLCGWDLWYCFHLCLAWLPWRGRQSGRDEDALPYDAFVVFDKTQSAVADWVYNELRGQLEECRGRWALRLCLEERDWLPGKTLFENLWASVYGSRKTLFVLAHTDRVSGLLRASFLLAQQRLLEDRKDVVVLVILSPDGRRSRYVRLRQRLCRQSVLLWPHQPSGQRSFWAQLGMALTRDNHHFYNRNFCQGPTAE
Assay: Antagonist screen, hTLR9-NFκB-293 cells, 6× NF-κB-luciferase reporter, with EC50 of CpG ODN 2006
Assay type: cell-based
Details: compound at 0.5, 5, 50 μg/ml; EC50 concentration of CpG ODN 2006; 16 h; NF-κB-luciferase
Summary of the method: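 Luciferase fold induction was compared with the ligand-alone baseline, and antagonism was scored by the lowest concentration giving clear down-regulation.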

Compound | hTLR9 (inhibitory effect, antagonist score)
C=CCc1ccccc1OC1(c2ccccc2)OC(=O)c2ccccc21 (centres unmarked) [compound 957] | 12 (compounds for which there was clear down regulation at 5 μg/ml and 50 μg/ml)
COC(=O)c1ccc(C2CC(=O)Nc3c2ccc2ccccc32)cc1 (centres unmarked) [compound 965] | — (compounds for which there was no clear down regulation even at 50 μg/ml)
O=C(O)c1ccc(C2(c3ccc(C(=O)O)cc3)OC(=O)c3ccccc32)cc1 [compound 970] | 11 (compounds for which there was clear down regulation only at 50 μg/ml)
Cc1cc(OC(=O)C2C3CCCCC32)c(C(C)C)cc1C1(c2cc(C(C)C)c(OC(=O)C3C4CCCCC43)cc2C)OC(=O)c2ccccc21 (centres unmarked) [compound 974] | — (compounds for which there was no clear down regulation even at 50 μg/ml)
CCN(CC)CCCN(CC(=O)C1c2ccc(Cl)cc2NC(=O)c2ccccc21)C(=O)c1ccccc1 (centres unmarked) [compound 1013] | 11 (compounds for which there was clear down regulation only at 50 μg/ml)
O=C1c2ccccc2C(=O)c2c1ccc1c(=O)n(C3CCCCC3)[nH]c21 [compound 1015] | 11 (compounds for which there was clear down regulation only at 50 μg/ml)
CCOC(=O)c1cc([N+](=O)[O-])cc2c1-c1ccc([N+](=O)[O-])cc1C2=C(C#N)C#N [compound 1039] | 11 (compounds for which there was clear down regulation only at 50 μg/ml)
O=C1c2ccccc2C(=O)c2c1ccc1c(=O)n(-c3ccccc3)[nH]c21 [compound 1042] | 12 (compounds for which there was clear down regulation at 5 μg/ml and 50 μg/ml)
O=C(c1cccc2c1-c1ccccc1/C2=N\O)N1CCCCC1 [compound 1050] | 12 (compounds for which there was clear down regulation at 5 μg/ml and 50 μg/ml)
NC(=O)c1cccc2c1-c1ccccc1C2 [compound 1132] | — (compounds for which there was no clear down regulation even at 50 μg/ml)
NC(=O)c1cc(N)c2c(c1N)C(=O)c1ccccc1C2=O [compound 1158] | 11 (compounds for which there was clear down regulation only at 50 μg/ml)
CC(=O)Oc1cc(C)c(C2(c3cc(C(C)C)c(OC(C)=O)cc3C)OC(=O)c3ccccc32)cc1C(C)C [compound 1161] | 12 (compounds for which there was clear down regulation at 5 μg/ml and 50 μg/ml)
COC(=O)c1cccc(C(O)(c2ccccc2)c2ccccc2)c1S(=O)(=O)C(C)(C)C [compound 1187] | — (compounds for which there was no clear down regulation even at 50 μg/ml)
CCOCCOC(=O)c1cc([N+](=O)[O-])cc2c1-c1c(cc([N+](=O)[O-])cc1[N+](=O)[O-])C2=C(C#N)C#N [compound 1241] | — (compounds for which there was no clear down regulation even at 50 μg/ml)
CC1CCN(C(=O)c2cccc3c2-c2ccccc2C3=O)CC1 [compound 1243] | — (compounds for which there was no clear down regulation even at 50 μg/ml)
Cc1cccc(C2(c3cccc(C)c3)OC(=O)c3ccccc32)c1 [compound 1308] | 11 (compounds for which there was clear down regulation only at 50 μg/ml)
COCCCNC(=O)c1ccc2c(c1N)C(=O)c1ccccc1C2=O [compound 1337] | 12 (compounds for which there was clear down regulation at 5 μg/ml and 50 μg/ml)
O=C1Nc2ccccc2Oc2ccc([N+](=O)[O-])cc21 [compound 1352] | 11 (compounds for which there was clear down regulation only at 50 μg/ml)
Flunarizinehydrochloride [compound 312] | 12 (compounds for which there was clear down regulation at 5 μg/ml and 50 μg/ml)
Maprotilinehydrochloride [compound 346] | 11 (compounds for which there was clear down regulation only at 50 μg/ml)
Metixene hydrochloride [compound 491] | 12 (compounds for which there was clear down regulation at 5 μg/ml and 50 μg/ml)
Prochlorperazinedimaleate [compound 399] | 12 (compounds for which there was clear down regulation at 5 μg/ml and 50 μg/ml)
Trifluoperazinedihydrochloride [compound 313] | 11 (compounds for which there was clear down regulation only at 50 μg/ml)
